# Test results published in ChEMBL document CHEMBL6109117, “Synthesis of an RBM39 Degrader That Downregulates CEP192 and Induces Disorganized Spindle Structures” (J Med Chem, 2025).
# The source made the active and inactive calls. No cut-off for these calls is given here.
# Legend:
# HCT-116 [1] = test: Induction of spliceosome function impairment in human HCT-116 cells assessed as increase in NCKAP1L RI transcript at 1 to 10 uM incubated for 12 hrs by qRT-PCR analysis; assay type: functional, cell-based; conditions: dose 1-10 µM
# HCT-116 [2] = test: Induction of spliceosome function impairment in human HCT-116 cells assessed as decrease in ZNF207 exon8-exon9 RNA level at 1 to 10 uM incubated for 12 hrs by qRT-PCR analysis; assay type: functional, cell-based; conditions: dose 1-10 µM
# K562 [3] = test: Antiproliferative activity against human K562 cells assessed as inhibition of cell growth incubated for 4 days by CCK8 assay; assay type: functional, cell-based; conditions: time 4.0 day
# MOLM-13 [4] = test: Effect on RNA splicing in human MOLM-13 cells assessed as CEP192 gene retention of introns incubated for 12 hrs by PCR analysis; assay type: functional, cell-based; conditions: dose 0.1-10 µM
# HCT-116 [5] = test: Induction of cell cycle arrest in human HCT-116 cells assessed as accumulation at G2/M phase at 1 uM incubated for 48 hrs by PI staining based flow cytometry relative to control; assay type: functional
# HCT-116 [6] = test: Induction of RBM39 degradation in human HCT-116 cells at 1 uM incubated for 3 to 6 hrs by Western blot analysis; assay type: cell-based; conditions: time 3-6 hrs
# [7] = Effect on RNA splicing in human K562 cells assessed as number of retention of introns at 2 uM incubated for 12 hrs by RNA-seq analysis; assay type: functional
# HCT-116 [8] = test: Effect on RNA splicing in human HCT-116 cells assessed as CEP192 gene skipping exons at 2 uM incubated for 12 hrs by RNA-seq analysis; assay type: functional, cell-based
# CEM/C1 [9] = test: Induction of RBM39 degradation in human CEM/C1 cells incubated for 24 hrs by Western blot analysis; assay type: cell-based
# MOLM-13 [10] = test: Antiproliferative activity against human MOLM-13 cells assessed as inhibition of cell growth incubated for 4 days by CCK8 assay; assay type: functional, cell-based; conditions: time 4.0 day
# [11] = Effect on RNA splicing in human K562 cells assessed as number of skipping exons at 2 uM incubated for 12 hrs by RNA-seq analysis; assay type: functional
# [12] = AUC (0 to t) in ICR mouse at 15 mg/kg, po; assay type: ADME, organism-based; conditions: in vivo
# RS4;11 = test: Induction of RBM39 degradation in human RS4;11 cells incubated for 24 hrs by Western blot analysis; assay type: cell-based
# [13] = Effect on RNA splicing in human K562 cells assessed as retention of introns at 2 uM incubated for 12 hrs by RNA-seq analysis relative to control; assay type: functional
# Kasumi 1 [14] = test: Effect on RNA splicing in human Kasumi 1 cells assessed as CEP192 gene skipping exons incubated for 12 hrs by PCR analysis; assay type: functional, cell-based; conditions: dose 0.1-10 µM
# Kasumi 1 [15] = test: Antiproliferative activity against human Kasumi 1 cells assessed as inhibition of cell growth incubated for 4 days by CCK8 assay; assay type: functional, cell-based; conditions: time 4.0 day
# HCT-116 [16] = test: Effect on RNA splicing in human HCT-116 cells assessed as CEP192 gene retention of introns incubated for 12 hrs by PCR analysis; assay type: functional, cell-based; conditions: dose <= 10.0 µM
# RS4-11 = test: Effect on RNA splicing in human RS4;11 cells assessed as CEP192 gene retention of introns incubated for 12 hrs by PCR analysis; assay type: functional, cell-based; conditions: dose 0.1-10 µM
# HCT-116 [17] = test: Induction of spliceosome function impairment in human HCT-116 cells assessed as fold decrease in ZNF207 exon8-exon9 RNA level at 1 to 10 uM incubated for 12 hrs by qRT-PCR analysis relative to control; assay type: functional; conditions: dose 1-10 µM
# HL-60 [18] = test: Antiproliferative activity against human HL-60 cells assessed as inhibition of cell growth incubated for 4 days by CCK8 assay; assay type: functional, cell-based; conditions: time 4.0 day
# K562 [19] = test: Induction of RBM39 degradation in human K562 cells incubated for 24 hrs by Western blot analysis; assay type: cell-based; conditions: dose 1-10 µM
# [20] = Effect on RNA splicing in human K562 cells assessed as alternative 5' splice sites at 2 uM incubated for 12 hrs by RNA-seq analysis relative to control; assay type: functional
# MV4-11 [21] = test: Antiproliferative activity against human MV4-11 cells assessed as inhibition of cell growth incubated for 4 days by CCK8 assay; assay type: functional, cell-based; conditions: time 4.0 day
# K562 [22] = test: Effect on RNA splicing in human K562 cells assessed as CEP192 gene retention of introns incubated for 12 hrs by PCR analysis; assay type: functional, cell-based; conditions: dose 0.1-10 µM
# CEM/C1 [23] = test: Antiproliferative activity against human CEM/C1 cells assessed as inhibition of cell growth incubated for 4 days by CCK8 assay; assay type: functional, cell-based; conditions: time 4.0 day
# [24] = Effect on RNA splicing in human K562 cells assessed as number of alternative 3' splice sites at 2 uM incubated for 12 hrs by RNA-seq analysis; assay type: functional
# HCT-116 [25] = test: Induction of spliceosome function impairment in human HCT-116 cells assessed as fold increase in PRPF38A RI transcript at 1 to 10 uM incubated for 12 hrs by qRT-PCR analysis relative to control; assay type: functional; conditions: dose 1-10 µM
# [26] = Effect on RNA splicing in human K562 cells assessed as number of mutually exclusive exons at 2 uM incubated for 12 hrs by RNA-seq analysis; assay type: functional
# HCT-116 [27] = test: Induction of cell cycle arrest in human HCT-116 cells assessed as accumulation at G2/M phase at 1 uM incubated for 24 hrs by PI staining based flow cytometry relative to control; assay type: functional
# MV4-11 [28] = test: Effect on RNA splicing in human MV4-11 cells assessed as CEP192 gene retention of introns incubated for 12 hrs by PCR analysis; assay type: functional, cell-based; conditions: dose 0.1-10 µM
# MV4-11 [29] = test: Induction of RBM39 degradation in human MV4-11 cells incubated for 24 hrs by Western blot analysis; assay type: cell-based
# HCT-116 [30] = test: Induction of spliceosome function impairment in human HCT-116 cells assessed as fold increase in NCKAP1L RI transcript at 1 to 10 uM incubated for 12 hrs by qRT-PCR analysis relative to control; assay type: functional; conditions: dose 1-10 µM
# HCT-116 [31] = test: Effect on RNA splicing in human HCT-116 cells assessed as CEP192 gene retention of introns at 2 uM incubated for 12 hrs by RNA-seq analysis; assay type: functional, cell-based
# HCT-116 [32] = test: Induction of cell cycle arrest in human HCT-116 cells assessed as accumulation at G2/M phase at 1 uM incubated for 72 hrs by PI staining based flow cytometry relative to control; assay type: functional
# K562 [33] = test: Effect on RNA splicing in human K562 cells assessed as CEP192 gene skipping exons incubated for 12 hrs by PCR analysis; assay type: functional, cell-based; conditions: dose 0.1-10 µM
# [34] = Effect on RNA splicing in human K562 cells assessed as skipping exons at 2 uM incubated for 12 hrs by RNA-seq analysis relative to control; assay type: functional
# HCT-116 [35] = test: Effect on RNA splicing in human HCT-116 cells assessed as CEP192 gene skipping exons up to 10 uM by PCR analysis; assay type: functional, cell-based; conditions: time 1-24 hrs
# HL-60 [36] = test: Effect on RNA splicing in human HL-60 cells assessed as CEP192 gene retention of introns incubated for 12 hrs by PCR analysis; assay type: functional, cell-based; conditions: dose 0.1-10 µM
# [37] = Effect on RNA splicing in human K562 cells assessed as alternative 3' splice sites at 2 uM incubated for 12 hrs by RNA-seq analysis relative to control; assay type: functional
# HCT-116 [38] = test: Effect on RNA splicing in human HCT-116 cells assessed as CEP192 gene retention of introns up to 10 uM by PCR analysis; assay type: functional, cell-based; conditions: time 1-24 hrs
smiles,measurement,setting,value
NS(=O)(=O)c1ccc(S(=O)(=O)Nc2cccc3c(Cl)c[nH]c23)cc1 [INDISULAM],Activity,HCT-116 [1],Active
same,Activity,HCT-116 [2],Active
Cc1ccc(NS(=O)(=O)c2cccc(NC(=O)C(=O)N3CCC[C@@H]3CO)c2)c2[nH]cc(C#N)c12,inhibition,K562 [3],Active
same,Activity,MOLM-13 [4],Dose-dependent-effect; Observed Retention Of Introns Between Exons 27 And 28
same,Activity,HCT-116 [5],58%
same,Activity,HCT-116 [6],Active; Compound Exhibited Its Efficiency Steadily Increasing From 3 To 48 Hrs
same,Activity,[7],1454
same,Activity,HCT-116 [8],"Active; Observed Skipping Of Exons 42, 28 And 13"
same,Activity,CEM/C1 [9],Dose-dependent-effect
same,inhibition,MOLM-13 [10],Active
same,Activity,[11],12285
same,AUC(0-t),[12],3480 ng·h/mL
same,Activity,RS4;11,Dose-dependent-effect
same,Activity,[13],8.4%
same,Activity,Kasumi 1 [14],"Dose-dependent-effect; Observed Skipping Of Exons 42, 28 And 13"
same,inhibition,Kasumi 1 [15],Active
same,Activity,HCT-116 [16],Dose-dependent-effect; Observed Retention Of Introns Between Exons 27 And 28
same,Activity,RS4-11,Dose-dependent-effect; Observed Retention Of Introns Between Exons 27 And 28
same,fold change (FC),HCT-116 [17],10
same,inhibition,HL-60 [18],Active
same,Activity,K562 [19],Dose-dependent-effect
same,Activity,[20],3.6%
same,inhibition,MV4-11 [21],Active
same,Activity,K562 [22],Dose-dependent-effect; Observed Retention Of Introns Between Exons 27 And 28
same,inhibition,CEM/C1 [23],Active
same,Activity,[24],1232
same,fold change (FC),HCT-116 [25],3
same,Activity,[26],1801
same,Activity,HCT-116 [27],33%
same,Activity,MV4-11 [28],Dose-dependent-effect; Observed Retention Of Introns Between Exons 27 And 28
same,Activity,MV4-11 [29],Dose-dependent-effect
same,fold change (FC),HCT-116 [30],3
same,Activity,HCT-116 [31],Active; Observed Retention Of Introns Between Exons 27 And 28
same,Activity,HCT-116 [32],66%
same,Activity,K562 [33],"Dose-dependent-effect; Observed Skipping Of Exons 42, 28 And 13"
same,Activity,[34],70.6%
same,Activity,HCT-116 [35],"Time-dependent-effect; Observed Skipping Of Exons 42, 28 And 13"
same,Activity,HL-60 [36],Dose-dependent-effect; Observed Retention Of Introns Between Exons 27 And 28
same,Activity,[37],7.1%
same,Activity,HCT-116 [38],Time-dependent-effect; Observed Retention Of Introns Between Exons 27 And 28
